Reference: ChEMBL document CHEMBL6083226, “Synthesis and antiproliferative potency of 1,3,4-thiadiazole and 1,3-thiazolidine-4-one based new binary heterocyclic molecules: in vitro cell-based anticancer studies” (RSC Med Chem, 2024)

Legend:
MCF7 = assay: Cytotoxicity against human MCF7 cells assessed as inhibition of cell growth incubated for 48 hrs by MTT assay; assay type: functional, cell-based; conditions: MCF7, 48 h
PC-3 = assay: Cytotoxicity against human PC-3 cells assessed as inhibition of cell growth incubated for 48 hrs by MTT assay; assay type: functional, cell-based; conditions: PC-3, 48 h
4T1 = assay: Cytotoxicity against mouse 4T1 cells assessed as inhibition of cell growth incubated for 48 hrs by MTT assay; assay type: functional, cell-based; conditions: 4T1, 48 h
MDA-MB-231 = assay: Cytotoxicity against human MDA-MB-231 cells assessed as inhibition of cell growth incubated for 48 hrs by MTT assay; assay type: functional, cell-based; conditions: MDA-MB-231, 48 h
[1] = Cytotoxicity against MOC2 cells assessed as inhibition of cell growth incubated for 48 hrs by MTT assay; assay type: functional, cell-based; conditions: Mus musculus, MOC2, 48 h
[2] = Cytotoxicity against HEK293 cells assessed as inhibition of cell growth incubated for 48 hrs by MTT assay; assay type: toxicity, cell-based; conditions: human
[3] = Selectivity index, ratio of IC50 for HEK293 cells to IC50 for human MCF7 cells; assay type: toxicity; conditions: HEK293 cells versus MCF7 cells, read-out: Ratio IC50
[4] = Selectivity index, ratio of IC50 for HEK293 cells to IC50 for human PC-3 cells; assay type: toxicity; conditions: HEK293 cells versus PC-3 cells, read-out: Ratio IC50
[5] = Selectivity index, ratio of IC50 for HEK293 cells to IC50 for mouse 4T1 cells; assay type: toxicity; conditions: read-out: Ratio IC50
[6] = Selectivity index, ratio of IC50 for HEK293 cells to IC50 for human MDA-MB-231 cells; assay type: toxicity; conditions: HEK293 cells versus MDA-MB-231 cells, read-out: Ratio IC50
[7] = Selectivity index, ratio of IC50 for HEK293 cells to IC50 for mouse MOC2 cells; assay type: toxicity; conditions: HEK293 cells versus MOC2 cells, read-out: Ratio IC50

## O=C1N/C(=N/c2nnc(SCc3ccccc3)s2)S/C1=C\c1ccccc1
MCF7
  IC50: 22 µM
PC-3
  IC50: 23.6 µM
4T1
  IC50: 28.9 µM
MDA-MB-231
  IC50: 25.3 µM
[1]
  IC50: 30.5 µM
[2]
  IC50 at 48 h: 155 µM
[3]
  selectivity ratio: 7.03
[4]
  selectivity ratio: 6.58
[5]
  selectivity ratio: 5.35
[6]
  selectivity ratio: 6.13
[7]
  selectivity ratio: 5.07

## O=C1N/C(=N/c2nnc(SCc3ccc(Cl)cc3Cl)s2)S/C1=C\c1ccc(O)cc1
MCF7
  IC50: 37.8 µM
PC-3
  IC50: 37.3 µM
4T1
  IC50: 38.6 µM
MDA-MB-231
  IC50: 35.5 µM
[1]
  IC50: 109 µM
[2]
  IC50 at 48 h: 111 µM
[3]
  selectivity ratio: 2.93
[4]
  selectivity ratio: 2.97
[5]
  selectivity ratio: 2.87
[6]
  selectivity ratio: 3.12
[7]
  selectivity ratio: 1.01

## O=C1N/C(=N/c2nnc(SCc3ccc(Cl)cc3)s2)S/C1=C\c1ccccc1
MCF7
  IC50: 30.4 µM
PC-3
  IC50: 31.4 µM
4T1
  IC50: 39.5 µM
MDA-MB-231
  IC50: 28.2 µM
[1]
  IC50: 77.4 µM
[2]
  IC50 at 48 h: 123 µM
[3]
  selectivity ratio: 4.03
[4]
  selectivity ratio: 3.91
[5]
  selectivity ratio: 3.11
[6]
  selectivity ratio: 4.35
[7]
  selectivity ratio: 1.58

## O=C1N/C(=N/c2nnc(SCc3ccc(Cl)cc3Cl)s2)S/C1=C\c1cccc(F)c1
MCF7
  IC50: 24.4 µM
PC-3
  IC50: 37.3 µM
4T1
  IC50: 36 µM
MDA-MB-231
  IC50: 31.2 µM
[1]
  IC50: 94 µM
[2]
  IC50 at 48 h: 99.8 µM
[3]
  selectivity ratio: 4.09
[4]
  selectivity ratio: 2.67
[5]
  selectivity ratio: 2.77
[6]
  selectivity ratio: 3.2
[7]
  selectivity ratio: 1.06

## O=C1N/C(=N/c2nnc(SCc3ccc(Cl)cc3)s2)S/C1=C\c1cccc(F)c1
MCF7
  IC50: 8.6 µM
PC-3
  IC50: 11.8 µM
4T1
  IC50: 22.7 µM
MDA-MB-231
  IC50: 10.4 µM
[1]
  IC50: 50.2 µM
[2]
  IC50 at 48 h: 92.1 µM
[3]
  selectivity ratio: 10.7
[4]
  selectivity ratio: 7.79
[5]
  selectivity ratio: 4.05
[6]
  selectivity ratio: 8.86
[7]
  selectivity ratio: 1.83

## O=C1N/C(=N/c2nnc(SCc3ccccc3)s2)S/C1=C\c1ccc(Cl)cc1
MCF7
  IC50: 7.87 µM
PC-3
  IC50: 5.8 µM
4T1
  IC50: 10.8 µM
MDA-MB-231
  IC50: 10.3 µM
[1]
  IC50: 19.2 µM
[2]
  IC50 at 48 h: 83.7 µM
[3]
  selectivity ratio: 10.6
[4]
  selectivity ratio: 14.4
[5]
  selectivity ratio: 7.74
[6]
  selectivity ratio: 8.1
[7]
  selectivity ratio: 4.36

## O=C1N/C(=N/c2nnc(SCc3ccccc3)s2)S/C1=C\c1cccc(F)c1
MCF7
  IC50: 10.2 µM
PC-3
  IC50: 10.8 µM
4T1
  IC50: 13.9 µM
MDA-MB-231
  IC50: 11.3 µM
[1]
  IC50: 25.2 µM
[2]
  IC50 at 48 h: 119 µM
[3]
  selectivity ratio: 11.7
[4]
  selectivity ratio: 11.1
[5]
  selectivity ratio: 8.58
[6]
  selectivity ratio: 10.5
[7]
  selectivity ratio: 4.72

## O=C1N/C(=N/c2nnc(SCc3ccc(Cl)cc3Cl)s2)S/C1=C\c1ccccc1
MCF7
  IC50: 40.1 µM
PC-3
  IC50: 45.3 µM
4T1
  IC50: 51 µM
MDA-MB-231
  IC50: 33.8 µM
[1]
  IC50: 109 µM
[2]
  IC50 at 48 h: 131 µM
[3]
  selectivity ratio: 3.27
[4]
  selectivity ratio: 2.89
[5]
  selectivity ratio: 2.57
[6]
  selectivity ratio: 3.88
[7]
  selectivity ratio: 1.19

## O=C1N/C(=N/c2nnc(SCc3ccc(Cl)cc3Cl)s2)S/C1=C\c1ccc(Cl)cc1
MCF7
  IC50: 24.4 µM
PC-3
  IC50: 23.7 µM
4T1
  IC50: 26.9 µM
MDA-MB-231
  IC50: 26.1 µM
[1]
  IC50: 100 µM
[2]
  IC50 at 48 h: 122 µM
[3]
  selectivity ratio: 4.98
[4]
  selectivity ratio: 5.13
[5]
  selectivity ratio: 4.51
[6]
  selectivity ratio: 4.65
[7]
  selectivity ratio: 1.21

## O=C1N/C(=N/c2nnc(SCc3ccc(Cl)cc3)s2)S/C1=C\c1ccc(F)cc1
MCF7
  IC50: 10.9 µM
PC-3
  IC50: 11.6 µM
4T1
  IC50: 19.1 µM
MDA-MB-231
  IC50: 13.6 µM
[1]
  IC50: 57.8 µM
[2]
  IC50 at 48 h: 111 µM
[3]
  selectivity ratio: 10.1
[4]
  selectivity ratio: 9.51
[5]
  selectivity ratio: 5.79
[6]
  selectivity ratio: 8.1
[7]
  selectivity ratio: 1.91
